Data published in patent publication US5744468A (Lin; Tong-Ho, priority 1996, dated 1998).
Where two headings read alike, the source gives them in different places.

What was measured:
[1] = test system: dopamine D3 receptor mRNA; settings: daily doses clozapine 30 mg/kg, sulpiride 100 mg/kg; male Wistar rats; long term; cited from earlier work
[2] = test system: intraocular pressure (IOP) in rabbits; settings: 50 μl
Description: New Zealand albino rabbits of either sex were used in the study. A 20% hypertonic saline solution was infused at the speed of 1 ml per min for 10 minutes through the marginal ear vein with an infusion pump.
Then the IOP of both eyes were measured with a Tono-Pen XL Tonometer (Mentor, Norwell, Mass.) at 30 minute and 10 minute intervals before the experiment. At the time of commencement, as well as at 10, 20, 40, 60, and 80 rain intervals measurements were taken, Then measurements were repeated at every 30 minute intervals.

CCN1CCCC1CNC(=O)c1cc(S(N)(=O)=O)ccc1OC (stereo not drawn) [Sulpiride]
mRNA levels in the dopamine D3 receptor [1]: large increase
effect on IOP recovery ([2]; 0.5% drop solution, instilled in eye): didn't show a significant ability in decreasing lOP
effect on IOP recovery ([2]; 20% drop solution, listed as sulpiride): able to decrease the intraocular pressure (IOP)
